# Experimental data reported in patent publication US20240165164A1, “STEM CELLS FOR USE IN REDUCING THE IMMUNE RESPONSE FOLLOWING ORGAN TRANSPLANTATION” (Amniotics AB, priority 2021, published 2024).
# Assays:
# [1] = system: human Peripheral Blood Mononuclear Cells (PBMCs); experiment: PBMC co-culture: cell composition after 24 hours of activation (FACS analysis)
# Method: (§1) Freshly isolated human PBMCs, pooled from three donors, were activated with anti-CD3/anti-CD28 at 10 μg/ml and 5 μg/ml respectively in presence of MSCs ex vivo for 24 or 72 hours. Following activation, cells were analysed for effects on cellular composition after 24 hours and for effects on cellular composition and cell proliferation using CFSE after 72 hours. In addition, supernatants collected after 24 hours of activation were analysed for cytokine levels using Luminex.
# (§2) Peripheral Blood Mononuclear Cells (PBMCs) were isolated from leucocyte concentrate from three different donors (acquired from Blodcentralen, Lunds Universitetssjukhus, Lund, Sweden) through gradient centrifugation at 400×g for 40 minutes using Ficoll. Red blood cells (RBCs) were lysed using BD Pharmlyse buffer 10× diluted in milliQ water for 3 minutes at room temperature (RT). Cells were washed and the isolated PBMCs were pooled. Cell concentration was determined using a Scepter cell counter (Millipore Merck, MA. USA). Cells were diluted to 1×10^7 cells/ml in PBS. Pooled PBMCs were split into 2 different tubes. Cells in tube 1 was stained with CFSE at 5 µM for 5 minutes (dark, RT). CFSE stained cells were washed with an equal volume of FBS to stop the reaction and washed again with PBS. Cells in tube two was left in PBS.
# (§3) MSCs (donor 1, donor 2, donor 3, and AD-MSC control cells) were provided in 8 different tubes, two for each cell type (in different medias (M3 and M4). All cells (PBMCs and MSCs) were diluted in the two different cell culture media (M3 and M4) to a final concentration of 2*10^6 cells/ml. Media was supplemented with anti-CD28 at 5 μg/ml. Cells were added to anti-CD3 (1 μg/well, 100 μl/well) coated U bottom cell culture plates according to the layout below, 200 μl/well in different PBMC:MSC ratios (1:10, 1:5, 1:2.5, 1:0 and 0:1) with a total amount of cells at 4*10^5 cells/well.
# (§4) When plating controls, cells were spun down and diluted in M3 or M4 at 4*10^6 cells/ml, with a total amount of cells at 4*10^5 cells/well. 100 μl PBMCs were added per well. […] Medium was added to unstimulated control wells (700 μl/well). Cells were incubated for 24 or 72 hours at 37° C., 5% CO2. See also FIG. 28.
# Following 24 hours of incubation, cells in FACS/Luminex plates were stained with antibodies detecting CD73, CD4, CD8, CD80, CD206, CD163 and PD-1 in staining buffer (PBS supplemented with 1% BSA). Briefly, cells were transferred to V bottom plates and centrifuged at 360×g for 2 min. Supernatant was transferred to a storage plate and put in −20° C. until analysis using Luminex. Cells were washed in PBS, centrifuged at 360×g for 2 min at 4° C. Supernatant was flicked off and antibodies against surface markers were added. Cells were incubated at +4° C. for 20 minutes (dark). After incubation, cells were washed 1× in PBS, centrifuged at 360×g for 2 min at 4° C. Cells were resuspended in PBS and acquired using the Attune Nxt flow cytometer. Compensation was performed using beads—AbC Total Compensation capture beads and negative beads. Since compensation was done using beads, FSC and SSC were changed before analysing samples and adjusted to cells. Lasers were not changed after compensation. 150 μl was analysed from each sample.
# [2] = system: human Peripheral Blood Mononuclear Cells (PBMCs); experiment: PBMC co-culture: proliferation and cell composition after 72 hours of activation (FACS analysis after CFSE labeling)
# Method: as §1, §2, §3, §4
# After 72 hours of incubation, CFSE stained cells were stained with CD4, CD8, CD80, CD206 and CD163 in staining buffer. Briefly, cells were transferred to V bottom plates, centrifuged at 360×g for 2 min. Cells were washed in PBS, centrifuged at 360×g for 2 min at 4° C. Supernatant was flicked off and surface markers were added. Cells were incubated at +4° C. for 20 minutes. After incubation, cells were washed 1× in PBS, centrifuged at 360×g for 2 min at 4° C. Cells were resuspended in PBS and acquired using the Attune Nxt flow cytometer. Compensation was performed using beads—AbC Total Compensation capture beads and negative beads for surface markers. For CFSE compensation, newly CFSE stained cells were used. Since compensation was done using both beads and cells, FSC and SSC were changed and adjusted to beads or cells. Lasers were not changed after compensation.
# Graphs were performed using Prism 8 for Mac OS X (GraphPad Software, San Diego, CA, USA). Results are presented as mean values±SEM, if not otherwise stated. Dot plots were acquired from analysis using FlowJo v10.6.1 for Mac (BD, New Jersey, USA). The inhibitory effect of MSCs on PBMC proliferation was calculated according to the two formulas below: […]
# [3] = system: human Peripheral Blood Mononuclear Cells (PBMCs); experiment: PBMC co-culture: cytokine analysis after 24 hours of activation (Luminex); format: cell-based
# Method: 100 μl PBMCs were added per well. […] See also FIG. 28.
# Supernatant (24 hours incubation) was analysed for cytokines using the 12-plex LXSAHM-12 Luminex kit. All reagents, standard and samples were prepared at room temperature and according to manufacturer's instruction. Briefly, 50 μl of standard or sample was added to wells. Microparticles were added to samples and standard and samples were incubated for 2 hours at room temperature on a horizontal orbital shaker (800 rpm). Plate was washed 3× in washing buffer using a magnetic plate. Biotin-antibody was added and incubated dark for 1 hour at room temperature on a horizontal orbital shaker (800 rpm). Plate was washed 3× in washing buffer using a magnetic plate. Streptavidin-PE was added to each well and incubated dark at room temperature on a horizontal orbital shaker (800 rpm) for 30 minutes. Plate was washed 3× in washing buffer using a magnetic plate. Microparticles were resuspended in 100 μl washing buffer, incubated for 2 minutes on a horizontal orbital shaker (800 rpm). Samples were analysed on a Bio-Rad Luminex analyzer.
# [4] = CsA 10 μg/ml, Prednisolone 125 nM
# [5] = stimulated PBMCs, media 3, MSCs at all ratios, CsA 10 μg/ml, Prednisolone 125 nM
compound,measurement,setting,value
C[C@]12C=CC(=O)C=C1CC[C@@H]1[C@@H]2[C@@H](O)C[C@@]2(C)[C@H]1CC[C@]2(O)C(=O)CO [Prednisolone],M2 macrophage expression,[1]; [4],no effect
same,T cell activation,[1]; [4],only slightly inhibits
same,expression level of M1 macrophages,[1]; [4],no effect
same,macrophage cell composition,[1]; Prednisolone 125 nM,did not have an effect
same,T helper cells (% CD4+ lymphocytes or MFI of CD4+ lymphocytes),"[1]; aCD3/aCD28 activated PBMCs, media 3, unsorted MSCs at PBMC:MSC 1:2.5, 1:5, 1:10, Prednisolone 125 nM, vs control",higher levels
same,M1 expression levels,[2]; 72 hours,no effect
same,M1 proliferation (CFSE),[2]; 72 hours,No effect
same,M2 expression levels,[2]; 72 hours,no effect
same,M2 proliferation (CFSE),[2]; 72 hours,No effect
same,T helper cells (% CD4+ among T cells),"[2]; 72 hours of incubation, unsorted MSCs co-culture, CsA 10 μg/ml, Prednisolone 125 nM",no effect
same,"the other analysed cytokines, levels in supernatant",[3]; 12-plex cytokines not listed as inhibited,No inhibitory effect
same,IL-6 levels in supernatant,[3]; [4],inhibits
same,IL12/IL23p40 levels in supernatant,[3]; [5],inhibits
same,TNF-α levels in supernatant,[3]; [5],inhibits
same,HGF levels in supernatant,"[3]; stimulated PBMCs, media 3, PBMC:MSC 1:2.5, 1:5, 1:10, CsA 10 μg/ml, Prednisolone 125 nM",inhibits
